Legend:
[1] = test system: [ATP] in nerve terminals of neurons; test: Presynaptic [ATP] at rest reported by Syn-ATP under metabolic inhibitors; format: cell-based, rat; conditions: resting neurons, TTX to block action potential firing (FIG. 15)
Experimental: All experiments were performed using dissociated primary hippocampal neurons according to procedures that have been previously described in Ryan T A. J. Neurosci 19:1317-1323 (1999). Briefly, hippocampi from newborn rats (P2-P4) were removed and dissected. Prior to cell dissociation, the dendate gyrus was removed leaving a relatively pure population of CA3 & CA1 excitatory neurons and interneurons. […] For fluorescence and luminescence experiments cover slips were mounted in a rapid switching low volume perfusion chamber equipped with stimulus electrodes and mounted on the stage of an inverted microscope equipped with EMCCD detection and laser-based wide-field illumination. Chemiluminescence was imaged using the same apparatus as the fluorescence, however no excitation source was used during the detection of light.
On DIV 14-25, neurons were mounted in a custom-built physiological perfusion chamber with temperature control that allows direct control of field stimulation to drive action potential firing. […] Luminescence and fluorescence imaging were performed using an EM-CCD Andor Ixon, thinned back-illuminated sensor through a 1.3 NA 40× fluar objective. Neurons expressing Syn-ATP were perfused with 20 mM luciferin, one minute prior to and throughout the period during which the luminescence images was obtained. […]

[2] = maximal number of photons emitted; cited from earlier work

Q: With `O=CC[C@@H](O)[C@H](O)[C@H](O)CO` [2-deoxyglucose] as the molecule, how does the “change of [ATP] at rest” value [1] read?
A: decreases

Q: With `CC[C@H]1/C=C/C=C/C[C@@H](C)[C@H](O)[C@@](C)(O)C(=O)[C@@H](C)[C@H](O)[C@@H](C)C(=O)[C@@H](C)[C@H](O)[C@@H](C)/C=C/C(=O)O[C@@H]2[C@H](C)[C@H](CC1)O[C@]1(CC[C@H](C)[C@H](C[C@@H](C)O)O1)[C@H]2C` [oligomycin] as the molecule, how does the “change of [ATP] at rest” value [1] read?
A: does not change

B1: Photonus pyralis luciferase: 62 kD firefly luciferase, SEQ ID NO: 1 (protein, listed as Photonis pyralis)
chain: MEDAKNIKKGPAPFYPLEDGTAGEQLHKAMKRYALVPGTIAFTDAHIEVDITYAEYFEMSVRLAEAMKRYGLNTNHRIVVCSENSLQFFMPVLGALFIGVAVAPANDIYNERELLNSMGISQPTVVFVSKKGLQKILNVQKKLPIIQKIIIMDSKTDYQGFQSMYTFVTSHLPPGFNEYDFVPESFDRDKTIALIMNSSGSTGLPKGVALPHRTACVRFSHARDPIFGNQIIPDTAILSVVPFHHGFGMFTTLGYLICGFRVVLMYRFEEELFLRSLQDYKIQSALLVPTLFSFFAKSTLIDKYDLSNLHEIASGGAPLSKEVGEAVAKRFHLPGIRQGYGLTETTSAILITPEGDDKPGAVGKVVPFFEAKVVDLDTGKTLGVNQRGELCVRGPMIMSGYVNNPEATNALIDKDGWLHSGDIAYWDEDEHFFIVDRLKSLIKYKGYQVAPAELESILLQHPNIFDAGVAGLPDDDAGELPAAVVVLEHGKTMTEKEIVDYVASQVTTAKKLRGGVVFVDEVPKGLTGKLDARKIREILIKAKKGGKIAV
Q: For B1, which kcat [2] is on record?
A: approximately 1.6 per sec
